Results reported in patent US12540141B2, “Spiropyrrolidine derived antiviral agents” (priority 2020, dated 2026).

Target: SARS-CoV-2 3CL-protease (Severe acute respiratory syndrome coronavirus 2, UniProt P0DTD1)
Test: SARS-CoV-2 3C-Like (3CL) Protease Fluorescence Assay (FRET)
Format: biochemical
Details: SARS-CoV-2 3CL-protease 10 nM, 30 min preincubation at RT, substrate 40 μM

| SMILES | IC50 [nM] |
| --- | --- |
| CC(C)C[C@@H](C(=O)N1C[C@]2(C[C@H]1C#N)C(=O)Nc1ccccc12)N(C)C(=O)C1(c2ccc3c(c2)OC(F)(F)O3)CC1 [Example 329] | < 100 |
| CC(C)C[C@@H](C(=O)N1C[C@]2(C[C@H]1C#N)C(=O)Nc1ccccc12)N(C)C(=O)c1ccc2ncccc2c1F [Example 330] | < 100 |
| CC(C)C[C@@H](C(=O)N1C[C@]2(C[C@H]1C#N)C(=O)Nc1ccccc12)N(C)C(=O)c1cc2ccc(C(F)(F)F)cc2[nH]1 [Example 331] | < 100 |
| CC(C)C[C@@H](C(=O)N1C[C@]2(C[C@H]1C#N)C(=O)Nc1ccccc12)N(C)C(=O)c1cc2cc(F)c(F)c(F)c2[nH]1 [Example 333] | < 100 |
| CC(C)C[C@@H](C(=O)N1C[C@]2(C[C@H]1C#N)C(=O)Nc1ccccc12)N(C)C(=O)c1cc2ccc(Cl)c(Cl)c2[nH]1 [Example 334] | < 100 |
| CC(C)C[C@@H](C(=O)N1C[C@]2(C[C@H]1C#N)C(=O)Nc1ccccc12)N(C)C(=O)N1CC[C@H](O)C1 [Example 335] | 100 to 1000 |
| CC(C)C[C@@H](C(=O)N1C[C@]2(C[C@H]1C#N)C(=O)Nc1ccccc12)N(C)C(=O)c1cc2cccc(C(F)(F)F)c2[nH]1 [Example 336] | < 100 |
| CC(C)C[C@@H](C(=O)N1C[C@]2(C[C@H]1C#N)C(=O)Nc1ccccc12)N(C)C(=O)c1cn(-c2ccccc2)nn1 [Example 338] | < 100 |
| CC(C)C[C@@H](C(=O)N1C[C@]2(C[C@H]1C#N)C(=O)Nc1ccccc12)N(C)C(=O)c1ccc2nn(C3CC3)cc2c1 [Example 339] | 100 to 1000 |
| CC(C)C[C@@H](C(=O)N1C[C@]2(C[C@H]1C#N)C(=O)Nc1ccccc12)N(C)C(=O)c1cc(F)c2nc(C3CC3)[nH]c2c1 [Example 340] | 100 to 1000 |
| CC(C)C[C@@H](C(=O)N1C[C@]2(C[C@H]1C#N)C(=O)Nc1ccccc12)N(C)C(=O)c1cc(F)c2nc(C(F)F)cn2c1 [Example 341] | 100 to 1000 |
| Cc1cc(F)c(C(=O)N(C)[C@@H](CC(C)C)C(=O)N2C[C@]3(C[C@H]2C#N)C(=O)Nc2ccccc23)cc1-c1cnn(C2CC2)c1 [Example 342] | < 100 |
| CC(C)C[C@@H](C(=O)N1C[C@]2(C[C@H]1C#N)C(=O)Nc1ccccc12)N(C)C(=O)c1ccc(OC2CC2)c(-c2cccnc2)c1 [Example 343] | < 100 |
| CC(C)C[C@@H](C(=O)N1C[C@]2(C[C@H]1C#N)C(=O)Nc1ccccc12)N(C)C(=O)[C@H]1CCN(C(=O)OC(C)(C)C)C1 [Example 344] | 100 to 1000 |
| CC(C)C[C@@H](C(=O)N1C[C@]2(C[C@H]1C#N)C(=O)Nc1ccccc12)N(C)C(=O)[C@@H]1CCN(C(=O)OC(C)(C)C)C1 [Example 345] | < 100 |
| CC(C)C[C@@H](C(=O)N1C[C@]2(C[C@H]1C#N)C(=O)Nc1ccccc12)N(C)C(=O)[C@@H](c1cnn(C)c1)C(C)C [Example 348] | < 100 |
| CC(C)C[C@@H](C(=O)N1C[C@]2(C[C@H]1C#N)C(=O)Nc1ccccc12)N(C)C(=O)[C@H](c1cnn(C)c1)C(C)C [Example 349] | < 100 |
| CC(C)C[C@@H](C(=O)N1C[C@]2(C[C@H]1C#N)C(=O)Nc1ccccc12)N(C)C(=O)[C@@H](c1cn(C)nn1)C(C)C [Example 350] | < 100 |
| CC(C)C[C@@H](C(=O)N1C[C@]2(C[C@H]1C#N)C(=O)Nc1ccccc12)N(C)C(=O)[C@H](c1cn(C)nn1)C(C)C [Example 351] | < 100 |

| SMILES | IC50 [nM] |
| --- | --- |
| CC(C)C[C@@H](C(=O)N1C[C@]2(C[C@H]1C#N)C(=O)Nc1ccccc12)N(C)C(=O)c1cnn(C(C)(C)C)c1 [Example 352] | < 100 |
| CC(C)C[C@@H](C(=O)N1C[C@]2(C[C@H]1C#N)C(=O)Nc1ccccc12)N(C)C(=O)c1cnn(-c2ccccc2C(F)(F)F)c1 [Example 353] | < 100 |
| CC(C)C[C@@H](C(=O)N1C[C@]2(C[C@H]1C#N)C(=O)Nc1ccccc12)N(C)C(=O)c1nnc(C2CC2)o1 [Example 354] | < 100 |
| CC(C)C[C@@H](C(=O)N1C[C@]2(C[C@H]1C#N)C(=O)Nc1ccccc12)N(C)C(=O)c1nnc(-c2ccc(F)cc2)o1 [Example 355] | < 100 |
| CC(C)C[C@@H](C(=O)N1C[C@]2(C[C@H]1C#N)C(=O)Nc1ccccc12)N(C)C(=O)c1nnn(C(C)(C)C)n1 [Example 356] | < 100 |
| CN(C(=O)c1cn(-c2ccc(F)cc2)nn1)[C@@H](Cc1ccccc1)C(=O)N1C[C@]2(C[C@H]1C#N)C(=O)Nc1ccccc12 [Example 357] | < 100 |
| CN(C(=O)c1cn(C2CCC2)nn1)[C@@H](Cc1ccccc1)C(=O)N1C[C@]2(C[C@H]1C#N)C(=O)Nc1ccccc12 [Example 358] | < 100 |
| CN(C(=O)c1cn(C2CC2)nn1)[C@@H](Cc1ccccc1)C(=O)N1C[C@]2(C[C@H]1C#N)C(=O)Nc1ccccc12 [Example 359] | < 100 |
| CN(C(=O)c1ccn(CC(F)(F)F)n1)[C@@H](Cc1ccccc1)C(=O)N1C[C@]2(C[C@H]1C#N)C(=O)Nc1ccccc12 [Example 360] | < 100 |
| CN(C(=O)c1ccn(C2CC2)n1)[C@@H](Cc1ccccc1)C(=O)N1C[C@]2(C[C@H]1C#N)C(=O)Nc1ccccc12 [Example 361] | < 100 |
| CN(C(=O)c1cn(CC(F)(F)F)nn1)[C@@H](Cc1ccccc1)C(=O)N1C[C@]2(C[C@H]1C#N)C(=O)Nc1ccccc12 [Example 362] | < 100 |
| CN(C(=O)c1cn(C(C)(C)C)nn1)[C@@H](Cc1ccccc1)C(=O)N1C[C@]2(C[C@H]1C#N)C(=O)Nc1ccccc12 [Example 363] | < 100 |
| CC(C)C[C@@H](C(=O)N1C[C@]2(C[C@H]1C#N)C(=O)Nc1ccccc12)N(C)C(=O)CC1CC1 [Example 364] | < 100 |
| CC(C)C[C@@H](C(=O)N1C[C@]2(C[C@H]1C#N)C(=O)Nc1ccccc12)N(C)C(=O)c1cn(C2CCC2)nn1 [Example 365] | < 100 |
| CC(C)C[C@@H](C(=O)N1C[C@]2(C[C@H]1C#N)C(=O)Nc1ccccc12)N(C)C(=O)CCNC(=O)OC(C)(C)C [Example 366] | < 100 |
| CC(C)C[C@@H](C(=O)N1C[C@]2(C[C@H]1C#N)C(=O)Nc1ccccc12)N(C)C(=O)CCN [Example 367] | < 100 |
| CC(C)C[C@@H](C(=O)N1C[C@]2(C[C@H]1C#N)C(=O)Nc1ccccc12)N(C)C(=O)CCNC(=O)c1ccc(F)cc1F [Example 368] | < 100 |
| COc1cccc2[nH]c(C(=O)N(C)[C@@H](COC(C)(C)C)C(=O)N3C[C@]4(C[C@H]3C#N)C(=O)Nc3ccccc34)cc12 [Example 370] | < 100 |
| CN(C(=O)c1cc2c(F)cc(F)cc2[nH]1)[C@@H](COC(C)(C)C)C(=O)N1C[C@]2(C[C@H]1C#N)C(=O)Nc1ccccc12 [Example 371] | < 100 |

| SMILES | IC50 [nM] |
| --- | --- |
| C[C@@H](C(=O)N(C)[C@@H](CC(C)(C)C)C(=O)N1C[C@]2(C[C@H]1C#N)C(=O)Nc1ccccc12)c1cnn(C)c1 [Example 372] | < 100 |
| C[C@H](C(=O)N(C)[C@@H](CC(C)(C)C)C(=O)N1C[C@]2(C[C@H]1C#N)C(=O)Nc1ccccc12)c1cnn(C)c1 [Example 373] | < 100 |
| CN(C(=O)C(F)(F)F)[C@@H](CC(C)(C)C)C(=O)N1C[C@]2(C[C@H]1C#N)C(=O)Nc1ccccc12 [Example 374] | 100 to 1000 |
| CN(C(=O)c1cc2c(OC3CC3)cccc2[nH]1)[C@@H](CC(C)(C)C)C(=O)N1C[C@]2(C[C@H]1C#N)C(=O)Nc1ccccc12 [Example 375] | < 100 |
| [2H]C([2H])([2H])N(C(=O)c1nc(-c2ccccc2)c[nH]1)[C@@H](CC(C)(C)C)C(=O)N1C[C@]2(C[C@H]1C#N)C(=O)Nc1ccccc12 [Example 376] | < 100 |
| [2H]C([2H])([2H])N(C(=O)c1cn(-c2ccc(Cl)cc2)nn1)[C@@H](CC(C)(C)C)C(=O)N1C[C@]2(C[C@H]1C#N)C(=O)Nc1ccccc12 [Example 377] | < 100 |
| [2H]C([2H])([2H])N(C(=O)c1cn(C2CC2)nn1)[C@@H](CC(C)(C)C)C(=O)N1C[C@]2(C[C@H]1C#N)C(=O)Nc1ccccc12 [Example 378] | < 100 |
| [2H]C([2H])([2H])N(C(=O)c1cn(C2CCC2)nn1)[C@@H](CC(C)(C)C)C(=O)N1C[C@]2(C[C@H]1C#N)C(=O)Nc1ccccc12 [Example 379] | < 100 |
| [2H]C([2H])([2H])N(C(=O)c1cn(CC(F)(F)F)nn1)[C@@H](CC(C)(C)C)C(=O)N1C[C@]2(C[C@H]1C#N)C(=O)Nc1ccccc12 [Example 380] | < 100 |
| [2H]C([2H])([2H])N(C(=O)c1ccc2ncc(C(F)(F)F)cc2c1)[C@@H](CC(C)(C)C)C(=O)N1C[C@]2(C[C@H]1C#N)C(=O)Nc1ccccc12 [Example 381] | < 100 |
| [2H]C([2H])([2H])N(C(=O)c1cc(OC(F)(F)F)c2ncccc2c1)[C@@H](CC(C)(C)C)C(=O)N1C[C@]2(C[C@H]1C#N)C(=O)Nc1ccccc12 [Example 382] | < 100 |
| [2H]C([2H])([2H])N(C(=O)c1cc(OC(F)F)c2ncccc2c1)[C@@H](CC(C)(C)C)C(=O)N1C[C@]2(C[C@H]1C#N)C(=O)Nc1ccccc12 [Example 383] | < 100 |
| CCCC[C@@H](C(=O)N1C[C@]2(C[C@H]1C#N)C(=O)Nc1ccccc12)N(C)C(=O)c1cc2c(F)cc(F)cc2[nH]1 [Example 384] | < 100 |
| CC[C@@H](C(=O)N1C[C@]2(C[C@H]1C#N)C(=O)Nc1ccccc12)N(C)C(=O)c1cc2c(F)cc(F)cc2[nH]1 [Example 385] | 100 to 1000 |
| CCC[C@@H](C(=O)N1C[C@]2(C[C@H]1C#N)C(=O)Nc1ccccc12)N(C)C(=O)c1cc2c(F)cc(F)cc2[nH]1 [Example 386] | < 100 |
| CN(C(=O)OCc1ccccc1)[C@@H](Cc1ccc(OCc2ccccc2)cc1)C(=O)N1C[C@]2(C[C@H]1C#N)C(=O)Nc1ccccc12 [Example 387] | > 1000 |
| CN(C(=O)c1cc2c(F)cc(F)cc2[nH]1)[C@@H](Cc1cccc(F)c1)C(=O)N1C[C@]2(C[C@H]1C#N)C(=O)Nc1ccccc12 [Example 389] | < 100 |
| [2H]C([2H])([2H])N(C(=O)c1cn(C2CCC2)nn1)[C@@H](Cc1ccc(F)cc1)C(=O)N1C[C@]2(C[C@H]1C#N)C(=O)Nc1ccccc12 [Example 390] | < 100 |
| [2H]C([2H])([2H])N(C(=O)c1cn(C2CC2)nn1)[C@@H](Cc1ccc(F)cc1)C(=O)N1C[C@]2(C[C@H]1C#N)C(=O)Nc1ccccc12 [Example 391] | < 100 |
